Measurements taken from patent EP4656642A1, “ESTROGEN RECEPTOR PROTEOLYSIS TARGETING CHIMERA COMPOUND AND USE THEREOF” (GAN & LEE PHARM CO., LTD, priority 2023, dated 2024).

What was measured:
Format in all cases: cell-based
MCF-7 cells = experiment: Inhibition of cell proliferation of MCF-7 cells (CCK-8, 9 days); details: treated for 9 days, CCK-8 kit (Table 6)
Procedure, shortened: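 Read-out was CCK-8 viability after 9-day continuous exposure (37°C, 5% CO2) of MCF-7 cells plated at 800/well in 10% FBS DMEM across several compound concentrations. Values are proliferation IC50s.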

ERα [1] = target: T1, ERα (Homo sapiens, UniProt P03372); experiment: Degradation of ERα in MCF-7 cells (immunoblotting, 4 h)
T1 sequence (P03372 1-595): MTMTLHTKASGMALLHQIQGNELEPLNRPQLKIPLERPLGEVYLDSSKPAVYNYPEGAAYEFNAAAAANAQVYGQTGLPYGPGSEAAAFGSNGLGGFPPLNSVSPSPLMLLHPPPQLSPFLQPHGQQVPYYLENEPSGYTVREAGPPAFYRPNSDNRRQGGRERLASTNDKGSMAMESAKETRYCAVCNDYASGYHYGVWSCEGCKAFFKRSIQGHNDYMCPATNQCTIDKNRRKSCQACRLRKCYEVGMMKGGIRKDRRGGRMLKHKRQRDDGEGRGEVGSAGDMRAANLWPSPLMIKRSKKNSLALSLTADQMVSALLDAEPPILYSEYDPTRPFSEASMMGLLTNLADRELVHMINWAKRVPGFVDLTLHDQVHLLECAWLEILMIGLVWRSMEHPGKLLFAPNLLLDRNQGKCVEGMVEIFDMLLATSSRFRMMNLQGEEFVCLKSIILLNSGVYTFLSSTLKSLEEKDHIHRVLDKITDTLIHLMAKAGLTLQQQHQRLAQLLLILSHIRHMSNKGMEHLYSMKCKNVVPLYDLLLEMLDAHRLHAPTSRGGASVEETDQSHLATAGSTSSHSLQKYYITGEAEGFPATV
Procedure, shortened: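 Degradation rate reflects ERα band intensity, corrected to an internal reference protein, relative to control. Values come from Western blotting of lysates from MCF-7 cells exposed 4 h at 37°C to compounds at final concentrations of 0.15-1000nM.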

ERα [2] = target: T1, ERα; experiment: Degradation of ERα in T-47D cells (immunoblotting, 4 h); parameters: host or cells: T-47D
Procedure, shortened: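 ERα protein levels were assessed by immunoblot of RIPA lysates (with protease inhibitor) after 4 h exposure at 37°C. Compound was added in DMSO to T-47D cells at final concentrations of 0.15-1000 nM.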

| Structure (SMILES) | IC50 (MCF-7 cells) [nM] | Degradation rate (%) of ERα in MCF-7 cells (ERα [1]; 1nM compound) [%] | Degradation rate (%) of ERα in MCF-7 cells (ERα [1]; 10nM compound) [%] | Degradation rate (%) of ERα in T-47D cells (ERα [2]; 1nM compound) [%] | Degradation rate (%) of ERα in T-47D cells (ERα [2]; 10nM compound) [%] |
| --- | --- | --- | --- | --- | --- |
| O=C1CCC(N2Cc3c(ccc4c3OCC43CCN(C[C@H]4CC[C@@H](OC5CCN(c6ccc([C@@H]7c8ccc(O)cc8CC[C@@H]7c7ccccc7)cc6)CC5)CC4)CC3)C2=O)C(=O)N1 (stereo partly shown) [G25] | 8.97 | 10 | 77 | 49 | 79 |
| O=C1CCC(N2Cc3cc4c(cc3C2=O)CCC2(CN(CC3CCN(c5ccc([C@@H]6c7ccc(O)cc7CC[C@@H]6c6ccccc6)cc5)CC3)C2)O4)C(=O)N1 (stereo partly shown) [H2] | 5900 | -77 | -70 | -11 | -23 |
| O=C1CCC(N2C(=O)c3ccc4c(c3C2=O)OCC42CCN(CC3CCN(c4ccc([C@@H]5c6ccc(O)cc6CC[C@@H]5c5ccccc5)cc4)CC3)CC2)C(=O)N1 (stereo partly shown) [H4] | 7740 | -32 | -7 | -41 | -48 |
| O=C1CCC(N2Cc3cc4c(cc3C2=O)C2(CCN(CC3CCN(c5ccc([C@@H]6c7ccc(O)cc7CC[C@@H]6c6ccccc6)cc5)CC3)CC2)CO4)C(=O)N1 (stereo partly shown) [H6] | 4170 | -6 | 7 | -35 | -32 |
| O=C1CCC(N2Cc3cc4c(cc3C2=O)CCC2(CN(C3CCN(C(=O)c5ccc([C@@H]6c7ccc(O)cc7CC[C@@H]6c6ccccc6)cc5)CC3)C2)O4)C(=O)N1 (stereo partly shown) [H10] | 9280 | -28 | -4 | 0 | 36 |
| O=C1CCC(N2Cc3c(ccc4c3OCC43CCN(C(=O)CN4CCC5(CCN(c6ccc([C@@H]7c8ccc(O)cc8CC[C@@H]7c7ccccc7)cc6)C5)C4)CC3)C2=O)C(=O)N1 (stereo partly shown) [H13] | 3.24 | 39 | 62 | 48 | 71 |
| O=C1CCC(N2Cc3c(ccc4c3OCC43CCN(C(=O)CN4CCN(c5ccc([C@@H]6c7ccc(O)cc7CC[C@@H]6c6ccccc6)cc5)CC4)CC3)C2=O)C(=O)N1 (stereo partly shown) [H14] | > 100000 | 8 | -13 | 31 | 27 |
| O=C1CCC(N2Cc3c(ccc4c3OCC43CCN(CC4CCC(N5CCN(c6ccc([C@@H]7c8ccc(O)cc8CC[C@@H]7c7ccccc7)cc6)CC5)CC4)CC3)C2=O)C(=O)N1 (stereo partly shown) [H15] | 43.5 | 29 | 51 | 5 | 56 |
| O=C1CCC(N2Cc3cc4c(cc3C2=O)OC2(CC4)CN(C3CC4(CCC5(CCN(c6ccc([C@@H]7c8ccc(O)cc8CC[C@@H]7c7ccccc7)cc6)CC5)CC4)C3)C2)C(=O)N1 (stereo partly shown) [H24] | 1180 | -7 | 11 | 16 | 21 |
| O=C1CCC(N2Cc3cc4c(cc3C2=O)OC2(CC4)CN(C3CC4(CCC5(CC4)CN(c4ccc([C@@H]6c7ccc(O)cc7CC[C@@H]6c6ccccc6)cc4)C5)C3)C2)C(=O)N1 (stereo partly shown) [H26] | 1260 | -9 | -11 | 1 | 2 |
| O=C1CCC(N2Cc3c(ccc4c3OCC43CCN(CC(=O)NC4CC5(CCN(c6ccc([C@@H]7c8ccc(O)cc8CC[C@@H]7c7ccccc7)cc6)CC5)C4)CC3)C2=O)C(=O)N1 (stereo partly shown) [H46] | 140 | 53 | 77 | 50 | 81 |
